Results taken from patent US20200390755A1, “COMPOUND FOR TREATING NERVOUS SYSTEM DISEASES AND USE THEREOF” (SHAANXI MICOT TECHNOLOGY CO., LTD., priority 2018, published 2020).

Key:
[1] = tested on: WT mice; test: In vivo MRI scan and brain volume measurement, WT mice; parameters: species or system mouse; conditions: 5 mg/kg/d, administered until 24 weeks, n = 4
Method: 7-week-old N171-82Q HD male mice were paired with female B6C3F1/J hybrid mice to obtain newborn mice. From 21 days of age, male mice were housed in separate cages. 0.5 cm of mouse tail tissue was removed to extract DNA to determine the genotype of the mouse, such that N171-82Q HD mice and WT mice needed for the experiment were obtained. The mice were randomly divided into WT Vehicle group (normal mice), WT test compound group (administration group of normal mice, 5 mg/kg/d, n=10), HD Vehicle group (blank group of HD mice, n=15), HD test compound group (administration groups 1-5 of HD mice, 5 mg/kg/d, n=10). The test compound was suspended in 1% CMC-Na solution and administered by intragastric administration until the end of the study. The weights of the mice were measured every week. Behavioral tests were performed at 12 weeks, 18 weeks, and 24 weeks of age to investigate motor function. At 20 weeks, 3 samples of tissue from each group were used for western blotting and immunohistochemistry. At 24 weeks, MRI scans were performed. At the end of the study, the effect of the test compound on the mortality of mice was evaluated. The WT Vehicle group, WT test compound group, HD Vehicle group and HD test compound group were administered until 24 weeks, and 4 mice in each group were taken for in vivo MRI scanning and brain volume measurement. A 9.4 T MRI scanner equipped with three-axis gradient and animal imaging probes was used. The mice were anesthetized with 1% isoflurane. The breath of mice was monitored, and constant temperature was maintained throughout the scan. Three-dimensional T2 weighted fast spin echo sequence technology was used to obtain images. The imaging resolution and contrast of this technology were sufficient to automatically describe the volume of the mouse brain and substructures. […] These transformations encoded morphological differences between images and analyzed based on deformation morphological measurements (DBM) to detect regional changes in brain volume. The volume of the whole brain (Brain), […] was analyzed. […]

[2] = tested on: WT mice; test: Rotarod experiment, WT mice; assay type: in vivo, mouse; conditions: 5 mg/kg/d intragastric
Method: 7-week-old N171-82Q HD male mice were paired with female B6C3F1/J hybrid mice to obtain newborn mice. From 21 days of age, male mice were housed in separate cages. 0.5 cm of mouse tail tissue was removed to extract DNA to determine the genotype of the mouse, such that N171-82Q HD mice and WT mice needed for the experiment were obtained. The mice were randomly divided into WT Vehicle group (normal mice), WT test compound group (administration group of normal mice, 5 mg/kg/d, n=10), HD Vehicle group (blank group of HD mice, n=15), HD test compound group (administration groups 1-5 of HD mice, 5 mg/kg/d, n=10). The test compound was suspended in 1% CMC-Na solution and administered by intragastric administration until the end of the study. The weights of the mice were measured every week. Behavioral tests were performed at 12 weeks, 18 weeks, and 24 weeks of age to investigate motor function. At 20 weeks, 3 samples of tissue from each group were used for western blotting and immunohistochemistry. At 24 weeks, MRI scans were performed. At the end of the study, the effect of the test compound on the mortality of mice was evaluated. The software Sigmaplot 13.0 was used for statistical analysis of the data, and the data of each group was expressed as mean standard error (x±SEM). Behavioral test results were analyzed using two-way (genotype and processing factor) ANOVA and post-ho tests, the comparison and statistics of weight data were performed using two-way (genotype and age) ANOVA of repeated measures, and mortality was counted using Kaplan-Meier method. Other measurement data were analyzed by one-way ANOVA. P<0.05 was considered statistically significant. The motor function of mice was evaluated by the rotarod experiment and three types of balance beam experiments. The shorter the time for mouse to cross the balance beam, and the longer the time to drop, the stronger the coordination ability of the mouse. […] The time the mouse remained on the rod, i.e., drop latent period, was recorded to indicate its motor coordination ability. […]

## O=c1cc(-c2ccc(N3CCCCC3)cc2)oc2c(O)c(O)ccc12 [Example 1, 7,8-dihydroxy-2-(4-(piperidin-1-yl)phenyl)-4H-chromen-4-one]
[1]
  MRI volume, Neurocortex: 20.11 ± 0.377 mm^3
  MRI volume, Striatum: 88.99 ± 0.985 mm^3
  MRI volume, Whole brain: 489.08 ± 7.14 mm^3
[2]; 12 w
  Time to drop (drop latent period), rotarod: 98.33 ± 30.03 s
[2]; 18 w
  Time to drop (drop latent period), rotarod: 78.97 ± 23.84 s
[2]; 24 w
  Time to drop (drop latent period), rotarod: 73.72 ± 18.25 s
